The target in the experiment is T1, human CaMKIIδ (Homo sapiens, UniProt Q13557).
T1 construct: Full-length, glutathione-S-transferase(GST)-tagged, human CaMKIIδ was purchased from Carna Biosciences; purchased Carna Biosciences (CaMKIIδ); Wako Pure Chemical Industries (calmodulin) 02-111
The experiment in a line: Evaluation of in vitro CaMKII inhibitory activity (binding assay, TR-FRET). The settings on record: human CaMKIIδ. The procedure, abridged:
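Inhibitors, in eight concentrations of 4-fold dilution, were incubated 1 h at room temperature with a protein–fluorescent probe premix preformed 30 min on ice, containing calmodulin and terbium anti-GST antibody. Displacement read by TR-FRET in duplicate; IC50 by logistic fitting.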
On the technique in general: TR-FRET usually uses a lanthanide donor and a delayed reading to cut background.

Setting [1] is: in vitro CaMKII inhibitory activity (binding assay), read-out: Act.
Setting [2] is: TR-FRET binding assay, class symbols A/B/C, read-out: Act (CaMKII inhibitory activity, binding assay).

Among the data in patent US12528816B2, “Substituted imidazo [1,2-b] pyridazines and [1, 2, 4] triazolo [ 4,3-b] pyridazines as camkii inhibitors” (Cardurion Pharmaceuticals, INC., priority 2020, dated 2026) are IC50 values, retold here.

Like-named read-outs stand apart in the source and are kept apart here.

For `C[C@@H](Cn1cnnn1)Oc1cccc(-c2ccc3ncc(-c4nc(Cl)ccc4C#N)n3n2)c1` [compound 386], under setting [1], the IC50 was < 10 nM. On to `C[C@@H](Cn1cnnn1)Oc1cncc(-c2ccc3ncn(-c4cc(Cl)ccc4C#N)c3n2)n1` [compound 445], for which, under setting [1], the IC50 is 10 to 100 nM. `CC(C)Oc1cccc(-c2cnc3ccc(-c4ccc(F)c(O[C@@H](C)Cn5cnnn5)c4)nn23)c1C#N` [compound 213]: under setting [2], the IC50 is < 10 nM. As for `C[C@@H](Cn1cnnn1)Oc1cc(-c2ccc3ncc(-c4ccc(=O)[nH]c4C#N)n3n2)ccc1F` [compound 255], the IC50 under setting [1] is < 10 nM.

In the case of `COC(=O)c1cccc(-c2cnn3ccc(-c4ccc(F)c(O[C@@H](C)Cn5cnnn5)c4)nc23)c1Cl` [compound 128], under setting [2], the IC50 lay within 10 to 100 nM. On to `C[C@@H](Cn1cnnn1)Oc1cc(-c2ccc3ncc(-c4cn(CC(=O)OCc5ccccc5)nc4C#N)n3n2)ccc1F` [compound 124], for which the IC50 under setting [2] lay within 10 to 100 nM. In the case of `COc1ccnc(-c2cnc3ccc(-c4ccc(F)c(O[C@@H](C)Cn5cnnn5)c4)nn23)c1C#N` [Example 321, 2-[6-(4-fluoro-3-{[(2S)-1-(1H-tetrazol-1-yl)propan-2-yl]oxy}phenyl)imidazo[1,2-b]pyridazin-3-yl]-4-methoxypyridine-3-carbonitrile], under setting [1], the IC50 is < 10 nM. As to `C[C@@H](Cn1cnnn1)Oc1cc(-c2ccc3ncc(-c4cc(C#N)ccc4C#N)n3n2)ccc1F` [compound 185], the IC50 under setting [2] is < 10 nM.

Consider `COC(=O)c1cccc(-n2cnc3ccc(-c4ccc(F)c(O[C@@H](C)Cn5cnnn5)c4)nc32)c1` [compound 13], for which, under setting [2], the IC50 was < 10 nM. Regarding `C[C@@H](Cn1cnnn1)Oc1cc(-c2ccc3ncn(-c4ccccc4C#N)c3n2)ccc1F` [compound 151], the IC50 under setting [2] was < 10 nM. As to `C[C@@H](Cn1cnnn1)Oc1cc(-c2ccc3ncc(-c4cn(CC(=O)NCCN5CCOCC5)nc4C#N)n3n2)ccc1F` [compound 127], the IC50 under setting [2] was > 100 nM. Regarding `C[C@@H](Cn1cnnn1)Oc1cc(-c2ccc3ncc(-c4cccc(OCC(F)F)c4C#N)n3n2)ccc1F` [compound 206], the IC50 under setting [2] is < 10 nM. `COc1cc(F)cc(-c2cnc3ccc(-c4ccc(F)c(O[C@@H](C)Cn5cnnn5)n4)nn23)c1C#N` [Example 447, 4-fluoro-2-[6-(5-fluoro-6-{[(2S)-1-(1H-tetrazol-1-yl)propan-2-yl]oxy}pyridin-2-yl)imidazo[1,2-b]pyridazin-3-yl]-6-methoxybenzonitrile]: the IC50 under setting [1] was < 10 nM.

In the case of `C[C@@H](Cn1cnnn1)Oc1cccc(-c2ccc3ncc(-c4c(C#N)ccc(F)c4F)n3n2)n1` [compound 422], under setting [1], the IC50 is < 10 nM. The same measure, in the same setting: under `C[C@@H](Cn1cnnn1)Oc1cc(-c2ccc3ncc(-c4cc(=O)n(C)cc4C#N)n3n2)ccc1F` [compound 242] stands < 10 nM; under `C[C@@H](Cn1cnnn1)Oc1cccc(-c2ccc3ncc(-c4cc(F)cn(CC#N)c4=O)n3n2)c1` [compound 360], < 10 nM. On the same count and under the same terms, under `C[C@@H](Cn1cnnn1)Oc1cccc(-c2ccc3ncc(-c4cc(F)cc(F)c4C#N)n3n2)n1` [compound 421] stands < 10 nM. On to `C[C@@H](Cn1cnnn1)Oc1cc(-c2ccn3ncc(-c4cc(F)ccc4C#N)c3n2)ccc1F` [compound 157], for which, under setting [2], the IC50 was < 10 nM. Turning to `C[C@@H](Cn1cnnn1)Oc1cccc(-c2ccn3ncc(-c4cccc(C(=O)NC5CN(Cc6ccccc6)C5)c4)c3n2)c1` [compound 86], the IC50 under setting [2] is < 10 nM. In the case of `C[C@@H](Cn1cnnn1)Oc1cccc(-c2ccc3ncc(-c4nccc(N(C)C)c4C#N)n3n2)c1` [compound 356], the IC50 under setting [1] is < 10 nM. Turning to `COCCCOc1cccc(-c2cnc3ccc(-c4ccc(F)c(O[C@@H](C)Cn5cnnn5)c4)nn23)c1C#N` [compound 172], under setting [2], the IC50 is < 10 nM. In the case of `C[C@@H](Cn1cnnn1)Oc1cc(-c2ccn3ncc(-c4ncccc4C#N)c3n2)ccc1F` [compound 295], under setting [1], the IC50 was < 10 nM. Take `C[C@@H](Cn1cnnn1)Oc1cc(-c2ccc3ncc(-c4cc(F)ccc4C#N)n3n2)ncn1` [compound 299]: under setting [1], the IC50 lay in the range of 10 to 100 nM.

Turning to `CC(=O)c1ccc(C#N)c(-c2cnc3ccc(-c4cccc(O[C@@H](C)Cn5cnnn5)c4)nn23)n1` [compound 389], the IC50 under setting [1] was 10 to 100 nM. As for `C[C@@H](Cn1cnnn1)Oc1cc(-c2ccn3ncc(-c4ccc(F)cc4)c3n2)ccc1F` [compound 51], the IC50 under setting [2] was < 10 nM. On to `C[C@@H](Cn1cnnn1)Oc1cccc(-c2ccc3ncc(-c4cccn(C)c4=O)n3n2)c1` [Example 253, 1-methyl-3-[6-(3-{[(2S)-1-(1H-tetrazol-1-yl)propan-2-yl]oxy}phenyl)imidazo[1,2-b]pyridazin-3-yl]-1,2-dihydropyridin-2-one], for which the IC50 under setting [1] was < 10 nM. Still for that read-out and setting: the result for `COc1cc(F)cc(-n2cnc3ccc(-c4cncc(O[C@@H](C)Cn5cnnn5)n4)nc32)c1C#N` [compound 396] reads < 10 nM.

Consider `C[C@@H](Cn1cnnn1)Oc1cccc(-c2ccn3ncc(-c4cccc(C(=O)NCCCN5CC(O)C5)c4)c3n2)c1` [compound 66], for which, under setting [2], the IC50 is < 10 nM. `C[C@@H](Cn1cnnn1)Oc1cccc(-c2ccc3ncc(-c4nc(N(C)C)ccc4C#N)n3n2)c1` [compound 350]: the IC50 under setting [1] lay within 10 to 100 nM. For the compound `C[C@@H](Cn1cnnn1)Oc1cc(-c2ccn3ncc(-c4cnn(C)c4)c3n2)ccc1F` [compound 23], under setting [2], the IC50 was < 10 nM. Regarding `C[C@@H](Cn1cnnn1)Oc1cncc(-c2ccc3ncn(-c4cccc(Cl)c4C#N)c3n2)n1` [compound 446], the IC50 under setting [1] was > 100 nM. As for `COc1cc(-c2cnc3ccc(-c4cccc(O[C@@H](C)Cn5cnnn5)c4)nn23)c(C#N)cn1` [Example 289, 6-methoxy-4-[6-(3-{[(2S)-1-(1H-tetrazol-1-yl)propan-2-yl]oxy}phenyl)imidazo[1,2-b]pyridazin-3-yl]pyridine-3-carbonitrile], the IC50 under setting [1] is < 10 nM. On to `C[C@@H](Cn1cnnn1)Oc1cc(-c2ccn3ncc(-c4ccc(C(F)F)cc4)c3n2)ccc1F` [compound 132], for which the IC50 under setting [2] fell in the range of 10 to 100 nM. With `C[C@@H](Cn1cnnn1)Oc1cc(-c2ccc3ncc(-c4nccc(N(C(=O)OC(C)(C)C)C(=O)OC(C)(C)C)c4C#N)n3n2)ccc1F` [compound 232], under setting [1], the IC50 was < 10 nM. Regarding `COc1ccnc(-c2cnc3ccc(-c4cccc(O[C@@H](C)Cn5cnnn5)n4)nn23)c1C#N` [compound 414], the IC50 under setting [1] fell in the range of 10 to 100 nM.

On to `C[C@@H](Cn1cnnn1)Oc1cccc(-c2ccn3ncc(-c4cccc(C(=O)NCCCN5CCCC5=O)c4)c3n2)c1` [compound 74], for which, under setting [2], the IC50 was < 10 nM. The same measure, in the same setting: under `COc1ccnc(-c2cnc3ccc(-c4cc(O[C@@H](C)Cn5cnnn5)ccn4)nn23)c1C#N` [compound 486] stands 10 to 100 nM. Regarding `COc1cccc(-c2cnc3ccc(-c4cncc(O[C@@H](C)Cn5cnnn5)n4)nn23)c1C#N` [compound 428, 2-methoxy-6-[6-(6-{[(2S)-1-(1H-tetrazol-1-yl)propan-2-yl]oxy}pyrazin-2-yl)imidazo[1,2-b]pyridazin-3-yl]benzonitrile], under setting [1], the IC50 was < 10 nM. As to `C[C@@H](Cn1cnnn1)Oc1cc(-c2ccc3ncc(-c4ccsc4C(=O)O)n3n2)ccc1F` [compound 243], the IC50 under setting [1] was > 100 nM.

Turning to `C[C@@H](Cn1cnnn1)Oc1cc(-c2ccn3ncc(-c4cccc(N5CCOCC5)c4)c3n2)ccc1F` [compound 47], the IC50 under setting [2] lay in the range of 10 to 100 nM. In the case of `COc1cccc(-c2cnc3ccc(-c4cccc(O[C@@H](C)Cn5cnnn5)c4)nn23)c1C#N` [compound 322], the IC50 under setting [1] is < 10 nM.

Consider `C[C@@H](Cn1cnnn1)Oc1cccc(-c2ccc3nnc(-c4cc(F)ccc4C#N)n3n2)c1` [compound 387], for which, under setting [1], the IC50 is > 100 nM.

As to `C[C@@H](Cn1cnnn1)Oc1cccc(-c2ccn3ncc(-c4cccc(C(=O)NC5CCN(C)C5)c4)c3n2)c1` (stereo partly shown) [compound 88], the IC50 under setting [2] was < 10 nM.

For the compound `COc1ccc(-c2cnc3ccc(-c4ccc(F)c(O[C@@H](C)Cn5cnnn5)c4)nn23)c(C#N)n1` [compound 249], under setting [1], the IC50 is < 10 nM. Turning to `C[C@@H](Cn1cnnn1)Oc1cc(-c2ccc3ncc(-c4cccc(OCC(C)(C)C#N)c4C#N)n3n2)ccc1F` [compound 226, 2-(2-cyano-2,2-dimethylethoxy)-6-[6-(4-fluoro-3-{[(2S)-1-(1H-tetrazol-1-yl)propan-2-yl]oxy}phenyl)imidazo[1,2-b]pyridazin-3-yl]benzonitrile], the IC50 under setting [2] was < 10 nM. In the case of `COc1ccnc(-c2cnc3ccc(-c4ccc(F)c(N[C@@H](C)Cn5cnnn5)c4)nn23)c1C#N` [Example 478, 2-[6-(4-fluoro-3-{[(2S)-1-(1H-tetrazol-1-yl)propan-2-yl]amino}phenyl)imidazo[1,2-b]pyridazin-3-yl]-4-methoxypyridine-3-carbonitrile], under setting [2], the IC50 is < 10 nM. With `C[C@@H](Cn1cnnn1)Oc1cc(-c2ccc3ncn(-c4cc(F)ccc4C#N)c3n2)ccc1F` [compound 292], the IC50 under setting [1] was < 10 nM. As to `CCN(CC)CCNC(=O)c1ccnc(-n2cnc3ccc(-c4ccc(F)c(O[C@@H](C)Cn5cnnn5)c4)nc32)c1` [compound 117], the IC50 under setting [2] was < 10 nM. With `C[C@@H](Cn1cnnn1)Oc1cccc(-c2ccn3ncc(-c4cccc(C(=O)NS(=O)(=O)C5CC5)c4)c3n2)c1` [compound 165], the IC50 under setting [2] is < 10 nM. As for `C[C@@H](Cn1cnnn1)Oc1cccc(-c2ccn3ncc(-c4cccc(C(=O)Nc5cnn(C)c5)c4)c3n2)c1` [compound 85], the IC50 under setting [2] is < 10 nM. With `C[C@@H](Cn1cnnn1)Oc1cccc(-c2ccc3ncc(-c4ccccc4CN=S(C)(C)=O)n3n2)c1` [compound 306], the IC50 under setting [1] fell in the range of 10 to 100 nM. On to `C[C@@H](Cn1cnnn1)Oc1cc(F)cc(-c2ccc3ncc(-c4cccn(C)c4=O)n3n2)c1` [compound 357], for which the IC50 under setting [1] is < 10 nM.
